In patent EP4775575A1, “COMPOUND USED AS CDK4 KINASE INHIBITOR AND USE THEREOF” (TYK Medicines, Inc., priority 2023, dated 2025):

Experiments:
[1] = Preclinical pharmacokinetic study in rats; assay type: in vivo, Sprague-Dawley (SD) rats; conditions: male SD rats, oral gavage (p.o.) 10 mg/kg, plasma; for AUC(0-t) / Cmax / Tmax: Sprague-Dawley, rat
Summary of the method: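 Male SD rats (6-8 weeks, 200-300 g), fasted overnight, given 10 mg/kg by oral gavage as 1 mg/mL solution in 5% DMSO/10% solutol HS-15/85% saline. Tail-vein plasma sampled up to 24 h, parent drug quantified by LC-MS/MS; parameters from non-compartmental analysis.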

[2] = tested on: Human breast cancer cells MCF-7; assay: Cell anti-proliferation assay (MTT), MCF-7; assay type: cell-based; conditions: Homo sapiens, MCF7, 120 h, MCF-7 cells, incubated for 5 days
Summary of the method: (§1)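 Cells in DMEM with 10% FBS were seeded at 50,000 cells/mL and grown overnight at 37 °C, 5% CO2, then treated at 9 concentrations (3-fold serial dilution, 0.1% DMSO medium). MTT was added for 3 h, formazan dissolved in acidified isopropanol/NP-40, and absorbance read at 570 nm.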

[3] = tested on: human ovarian cancer cells A2780; assay: Cell anti-proliferation assay (MTT), A2780; assay type: cell-based; conditions: Homo sapiens, 120 h, incubated for 5 days
Summary of the method: as §1

[4] = target: T1, CDK6/CyclinD3 (Homo sapiens, UniProt Q00534); assay: Kinase activity assay (MSA, EZ Reader) against CDK6; assay type: biochemical; conditions: CDK6/CyclinD3 5.00 nM, ATP 350 µM, FL-Peptide34, 10mM MgCl2
T1 construct: purchased Carna 04-107

[5] = target: CDK4/CycD1 (Homo sapiens, UniProt P11802); assay: Kinase activity assay (MSA, EZ Reader) against CDK4
[6] = tested on: human mantle cell lymphoma cells JEKO-1; assay: Cell anti-proliferation assay (MTT), JEKO-1; assay type: cell-based; conditions: Homo sapiens, 120 h, JEKO-1 cells, incubated for 5 days
Summary of the method: as §1

T1 sequence (Q00534 whole entry): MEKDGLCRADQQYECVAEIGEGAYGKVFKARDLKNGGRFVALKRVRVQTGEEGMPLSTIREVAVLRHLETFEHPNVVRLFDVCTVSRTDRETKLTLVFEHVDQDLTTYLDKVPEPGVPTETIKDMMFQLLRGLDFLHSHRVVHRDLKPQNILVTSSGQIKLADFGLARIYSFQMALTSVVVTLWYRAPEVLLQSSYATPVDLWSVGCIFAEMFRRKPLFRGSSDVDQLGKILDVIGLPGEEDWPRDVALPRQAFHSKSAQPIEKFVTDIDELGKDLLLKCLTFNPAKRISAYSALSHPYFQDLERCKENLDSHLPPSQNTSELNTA
T1 sequence (P30281 whole entry partner): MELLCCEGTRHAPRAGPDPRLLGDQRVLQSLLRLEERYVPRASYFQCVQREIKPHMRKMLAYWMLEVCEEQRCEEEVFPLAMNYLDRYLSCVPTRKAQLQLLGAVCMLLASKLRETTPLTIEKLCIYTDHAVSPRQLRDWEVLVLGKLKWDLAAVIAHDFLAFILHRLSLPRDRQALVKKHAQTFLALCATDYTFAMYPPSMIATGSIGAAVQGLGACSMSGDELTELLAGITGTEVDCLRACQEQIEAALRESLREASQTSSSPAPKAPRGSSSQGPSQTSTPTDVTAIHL
Sequence of CDK4/CycD1 (P11802 whole entry): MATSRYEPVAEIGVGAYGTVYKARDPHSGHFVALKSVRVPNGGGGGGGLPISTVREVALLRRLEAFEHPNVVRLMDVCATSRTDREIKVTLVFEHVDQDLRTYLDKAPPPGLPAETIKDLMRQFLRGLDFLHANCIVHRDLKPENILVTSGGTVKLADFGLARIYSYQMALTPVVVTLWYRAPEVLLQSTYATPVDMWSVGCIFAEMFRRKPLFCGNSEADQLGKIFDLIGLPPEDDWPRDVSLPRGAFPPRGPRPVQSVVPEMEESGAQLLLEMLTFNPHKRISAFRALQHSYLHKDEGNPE

Row | Structure (SMILES) | AUC(0-t) [1] [ng·h/mL] | Cmax [1] [ng/mL] | Tmax [1] [h] | HL_ [1] [h] | IC50 [2] [nM] | IC50 [3] [nM] | IC50 [4] [nM] | IC50 [5] [nM] | IC50 [6] [nM]
1 | CCS(=O)(=O)N1CCC(Nc2ncc(Cl)c(-c3cc(F)c4nc(N5CCOC5=O)n(C(C)C)c4c3)n2)CC1 [TB-31] | 4890 | 923 | 4 | 1.34 | ≤ 500 | ≤ 500 | 182 | 15.3 | ≤ 500
2 | C[C@H]1CCN(C)c2nc3c(F)cc(-c4nc(Nc5ccncc5)ncc4Cl)cc3n21 [TB-137, (S)-5-chloro-4-(9-fluoro-1,4-dimethyl-1,2,3,4-tetrahydrobenzo[4,5]imidazo[1,2-a]pyrimidin-7-yl)-N-(pyridin-4-yl)pyrimidin-2-amine] | 3670 | 1240 | 0.83 | 4.10 | ≤ 500 | ≤ 500 | 175 | 28.3 | ≤ 500
3 | C[C@H]1CCN(C)c2nc3c(F)cc(-c4cc(N[C@@H]5CCOC[C@H]5O)ncc4Cl)cc3n21 [TB-149] | 25400 | 4160 | 1.17 | 1.99 | ≤ 500 | ≤ 500 | 90.8 | 5.3 | ≤ 500
4 | C[C@H]1CCN(CC#N)c2nc3c(F)cc(-c4nc(N[C@@H]5CCOC[C@H]5O)ncc4Cl)cc3n21 [TC-2] | 1240 | 400 | 0.67 | 2.87 | 500 to 2000 | ≤ 500 | 75.7 | 4.5 | ≤ 500
5 | C[C@H]1CCN(c2ccccc2F)c2nc3c(F)cc(-c4nc(N[C@@H]5CCOC[C@H]5O)ncc4Cl)cc3n21 [TC-12] | 1290 | 417 | 1 | 2.55 | ≤ 500 | ≤ 500 | 45.7 | 1.9 | ≤ 500
